In patent publication US20220062299A1, “USE OF GLUCOCORTICOID STEROIDS IN PREVENTING AND TREATING CONDITIONS OF MUSCLE WASTING, AGING AND METABOLIC DISORDER” (NORTHWESTERN UNIVERSITY, priority 2018, published 2022):

Experiments:
[1] = tested on: Duchenne muscular dystrophy boys; parameters: dose or concentration left out as unconfirmed; conditions: cited from earlier work
[2] = tested on: mdx; Dysf-null; Sgcg-null mice; test: Once-weekly glucocorticoids in three murine models of muscle disease; format: in vivo, mouse; conditions: 1 mg/kg once-weekly, contrary to daily dosing
Excerpt: Glucocorticoid steroids are widely prescribed drugs for chronic inflammatory conditions, and their daily intake generally correlates with muscle wasting and weakness, osteoporosis, obesity and metabolic disorders. […] (Quattrocelli et al, J Clin Invest 2017; Quattrocelli et al, Am J Pathol 2017; Quattrocelli et al., JCI Insight. 2019 Dec. 19; 4(24). pii: 132402. doi: 10.1172/jci.insight.132402).

**Q.** Which muscle disease progression [1] does the source give for `CC/C=C\C/C=C\C/C=C\C/C=C\C/C=C\C/C=C\CCC(=O)NCCNC(=O)c1ccccc1O` [Edasalonexent] here?
**A.** delayed

**Q.** For `CC(=O)OCC(=O)[C@@]12N=C(C)O[C@@H]1C[C@H]1[C@@H]3CCC4=CC(=O)C=C[C@]4(C)[C@H]3[C@@H](O)C[C@@]12C` [deflazacort], which “muscle force and mass” value [2] is on record?
**A.** improved
